A short description of one data set: Rivastigmine and pamoate contents in rivastigmine pamoate (HPLC). In kind it is physicochemical. The conditions noted are these: HPLC 210 nm. The protocol: In order to measure the contents of rivastigmine and pamoate of rivastigmine pamoate prepared in Example 1, the sample 10 mg was completely dissolved with dimethyl sulfoxide, and then was diluted into a mobile phase. The diluted solution 20 uL was injected to HPLC and was measured at a detection wavelength 210 nm. The column used in the present measurement was Inertsil ODS-3, 5 um, 4.6×250 mm, and the mobile phase was used by mixing phosphate buffer solution (pH 6.0) and acetonitrile at a ratio of 65:35 (v/v).
On to rivastigmine pamoate [Sample 1-1], for which the “Pamoate content of rivastigmine pamoate” value is on record as 40.49 % by weight and the “Rivastigmine content of rivastigmine pamoate” value (“Rivastigmine content” below) came out at 57.47 % by weight. In the case of rivastigmine pamoate [Sample 1-2], the “Pamoate content of rivastigmine pamoate” value is on record as 40.47 % by weight and the “Rivastigmine content” value was found to be 52.45 % by weight. As for rivastigmine pamoate [Sample 1-3], the “Pamoate content of rivastigmine pamoate” value is 53.79 % by weight and the “Rivastigmine content” value worked out at 41.10 % by weight. The matching figures for rivastigmine pamoate [Sample 1-4]: 68.93 % by weight and 32.19 % by weight.

Test in another data set: not given
The conditions noted are these: cited from earlier work.
Take `CCN(C)C(=O)Oc1cccc([C@H](C)N(C)C)c1` [rivastigmine freebase, rivastigmine]: the Solubility in water was at most 5000 µg/mL.

Values taken from patent publication US20220257518A1, “LONG-LASTING FORMULATION CONTAINING RIVASTIGMINE, AND METHOD FOR PREPARING SAME” (priority 2019, published 2022).
